Assay results reported in patent publication US20250122218A1, “MODULATORS OF CYSTIC FIBROSIS TRANSMEMBRANE CONDUCTANCE REGULATOR” (Vertex Pharmaceuticals Incorporated, priority 2022, published 2025).

Target: T1, CFTR in F508del/MF-HBE cells (Homo sapiens, UniProt P13569, DEL508-508)
T1 construct: human bronchial epithelial (HBE) cells derived from CF subjects heterozygous for F508del and a minimal function CFTR mutation; endogenous in cells; host or cells: primary human bronchial epithelial cells from CF subjects (F508del/MF-HBE)
Assay: Ussing chamber assay of CFTR-mediated short-circuit currents (identification of potentiator compounds)
Format: cell-based
Conditions: potentiator incubated 18-24 hours at 37° C. in combination with 10 μM corrector, in the presence of 20% human serum, CFTR-mediated ISC
In short: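 F508del/MF-HBE cultures were preincubated 18-24 h at 37° C with potentiator plus 10 μM of a fixed corrector compound in 20% human serum; compounds were kept present during measurement. ISC was recorded under voltage clamp (0 mV, 37° C, amiloride apical) and taken as the 20 μM forskolin peak minus the current after inhibitor cocktail.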

T1 sequence (P13569 with tags, fused parts or gaps DEL508-508): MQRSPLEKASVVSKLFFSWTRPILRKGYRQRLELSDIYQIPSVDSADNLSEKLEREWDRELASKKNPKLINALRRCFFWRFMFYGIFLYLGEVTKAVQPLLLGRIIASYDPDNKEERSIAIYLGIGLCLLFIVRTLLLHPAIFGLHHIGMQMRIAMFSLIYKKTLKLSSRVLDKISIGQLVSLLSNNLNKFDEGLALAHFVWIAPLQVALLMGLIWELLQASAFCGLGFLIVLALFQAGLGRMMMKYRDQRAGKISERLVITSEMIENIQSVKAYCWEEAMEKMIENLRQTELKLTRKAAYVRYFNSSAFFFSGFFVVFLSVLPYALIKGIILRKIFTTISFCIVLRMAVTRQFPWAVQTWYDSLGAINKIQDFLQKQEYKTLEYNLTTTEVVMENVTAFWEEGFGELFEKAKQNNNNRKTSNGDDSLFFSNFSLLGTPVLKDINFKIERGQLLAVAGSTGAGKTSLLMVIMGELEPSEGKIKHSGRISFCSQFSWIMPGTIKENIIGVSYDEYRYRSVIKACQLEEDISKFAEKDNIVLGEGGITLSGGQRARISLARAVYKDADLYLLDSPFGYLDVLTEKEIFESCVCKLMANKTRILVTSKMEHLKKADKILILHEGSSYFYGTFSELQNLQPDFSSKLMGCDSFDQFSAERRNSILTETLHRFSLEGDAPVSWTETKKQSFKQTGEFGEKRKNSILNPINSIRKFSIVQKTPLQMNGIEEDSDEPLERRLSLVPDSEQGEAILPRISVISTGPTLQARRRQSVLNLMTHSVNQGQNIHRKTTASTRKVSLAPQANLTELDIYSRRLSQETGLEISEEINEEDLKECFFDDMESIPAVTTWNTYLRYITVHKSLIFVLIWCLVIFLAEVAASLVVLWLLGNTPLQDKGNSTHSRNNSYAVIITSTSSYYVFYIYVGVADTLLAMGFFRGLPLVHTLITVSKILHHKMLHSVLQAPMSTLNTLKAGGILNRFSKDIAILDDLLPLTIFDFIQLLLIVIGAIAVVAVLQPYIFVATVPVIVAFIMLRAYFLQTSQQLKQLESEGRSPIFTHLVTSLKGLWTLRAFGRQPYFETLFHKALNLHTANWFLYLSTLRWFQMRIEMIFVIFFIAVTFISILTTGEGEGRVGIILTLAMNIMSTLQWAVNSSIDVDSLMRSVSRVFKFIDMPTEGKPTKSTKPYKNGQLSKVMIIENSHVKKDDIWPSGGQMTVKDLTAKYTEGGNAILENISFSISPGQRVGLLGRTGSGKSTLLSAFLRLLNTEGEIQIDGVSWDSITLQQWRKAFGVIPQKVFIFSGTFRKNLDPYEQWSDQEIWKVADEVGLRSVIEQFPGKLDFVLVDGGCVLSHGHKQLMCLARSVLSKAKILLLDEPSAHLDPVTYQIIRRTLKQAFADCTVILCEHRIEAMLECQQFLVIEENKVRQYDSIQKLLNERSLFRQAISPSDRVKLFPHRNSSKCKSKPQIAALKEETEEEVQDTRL

| SMILES | EC50 [nM] |
| --- | --- |
| Nc1cc(C(F)(F)F)c2nc1-c1nnc(o1)[C@](O)(C(F)(F)F)CCCC(F)(F)CCC2=O [Compound 39, (6S)-17-amino-10,10-difluoro-6-hydroxy-6,15-bis(trifluoromethyl)-19-oxa-3,4,18-triazatricyclo[12.3.1.12,5]nonadeca-1(18),2,4,14,16-pentaen-13-one] | 500 to 1000 |
| Cc1cccnc1CN1CCCCC[C@](O)(C(F)(F)F)C2=NN=C(O2)c2nc(c(C(F)(F)F)cc2N)C1=O [Compound 140, (6R)-17-amino-6-hydroxy-12-[(3-methyl-2-pyridyl)methyl]-6,15-bis (trifluoromethyl)-19-oxa-3,4,12,18-tetrazatricyclo [12.3.1.12,5] nonadeca-1(18),2,4,14,1 6-pentaen-13-one] | < 500 |
| Nc1cc(C(F)(F)F)c2nc1-c1nnc(o1)C(O)(C(F)(F)F)CCCCN(Cc1ccc(OC(F)(F)F)cc1)C2=O (single isomer, unassigned) [Compound 235, 16-amino-6-hydroxy-11-[[4-(trifluoromethoxy)phenyl]methyl]-6,14-bis(trifluoromethyl)-18-oxa-3,4,11,17-tetrazatricyclo [11.3.1.12,5] octadeca-1(17),2,4,13,15-pentaen-12-one] | < 500 |
| Nc1cc(C(F)(F)F)c2nc1-c1nnc(o1)[C@@](O)(C(F)(F)F)CCCCCN(Cc1cc(Cl)cc(OC(F)(F)F)c1)C2=O [Compound 178, (6R)-17-amino-12-[[3-chloro-5-(trifluoromethoxy)phenyl]methyl]-6-hydroxy-6,15-bis (trifluoromethyl)-19-oxa-3,4,12,18-tetrazatricyclo [12.3.1.12,5] nonadeca-1(18),2,4,14,1 6-pentaen-13-one] | < 500 |
| CC(C)N1CCCCCC(O)(C(F)(F)F)C2=NN=C(O2)c2nc(c(C(F)(F)F)cc2N)C1=O (single isomer, unassigned) [Compound 205, 17-amino-6-hydroxy-12-isopropyl-6,15-bis(trifluoromethyl)-19-oxa-3,4,12,18-tetrazatricyclo [12.3.1.12,5] nonadeca-1(18),2,4,14,16-pentaen-13-one] | > 1000 |

Other lines, results leading:

| EC50 [nM] | SMILES |
| --- | --- |
| < 500 | Nc1cc(C(F)(F)F)c2nc1-c1nnc(o1)C(O)(C(F)(F)F)c1cc(ccc1F)CCCN(C1CC(F)(F)C1)C2=O (racemic) [Compound 201, 20-amino-15-(3,3-difluorocyclobutyl)-8-fluoro-6-hydroxy-6,18-bis(trifluoromethyl)-23-oxa-3,4,15,21-tetraazatetracyclo [15.3.1.12,5.17,11] tricosa 1(21),2,4,7(22),8,10, 17,19-octaen-16-one] |
| < 500 | Nc1cc(C(F)(F)F)c2nc1-c1nnc(o1)[C@@](O)(C(F)(F)F)CCCCCN(Cc1ccc(F)c(C3CCC3)c1)C2=O [Compound 256, (6R)-17-amino-12-[(3-cyclobutyl-4-fluoro-phenyl)methyl]-6-hydroxy-6,15-bis(trifluoromethyl)-19-oxa-3,4,12,18-tetrazatricyclo [12.3.1.12,5] nonadeca-1(18),2,4,14,16-pentaen-13-one] |
| < 500 | COc1cc(CN2CCCCC[C@](O)(C(F)(F)F)C3=NN=C(O3)c3nc(c(C(F)(F)F)cc3N)C2=O)ccc1F [Compound 163, (6R)-17-amino-12-[(4-fluoro-3-methoxy-phenyl)methyl]-6-hydroxy-6,15-bis (trifluoromethyl)-19-oxa-3,4,12,18-tetrazatricyclo [12.3.1.12,5] nonadeca-1(18),2,4,14,1 6-pentaen-13-one] |
| < 500 | CC1CCCCCCC(O)(C(F)(F)F)C2=NN=C(O2)c2nc1c(C(F)(F)F)cc2N (single isomer, unassigned) [Compound 19, 17-amino-13-methyl-6,15-bis(trifluoromethyl)-19-oxa-3,4,18-triazatricyclo[12.3.1.12,5]nonadeca-1(18),2,4,14,16-pentaen-6-ol] |
